In US20230287234A1, “EDIBLE COATINGS FOR MAINTAINING FRUIT QUALITY” (The State of Israel, Ministry of Agriculture & Rural …, priority 2020, published 2023):
“Also recorded” adds a separate entry of the source.

Columns and labels:
[1] = test system: stem-end rot and side rot of avocado fruit; assay: Effect of coatings with and without Phe on avocado decay (stem-end rot, side rot, total decay incidence); format: in vivo, 'Fuerte' avocado; conditions: avocado stored 12 d at 22° C.
Protocol: Three series of experiments were conducted. In each experiment the coated avocados were compared with uncoated fruits. The first experiment included seven edible coating formulations: carboxymethyl cellulose (CMC) (1% w/v), methylcellulose (MC) (1% w/v), hydroxypropyl methylcellulose (HPMC) (1% w/v), chitosan (1% w/v), alginate (1% w/v), and CMC with stearic acid (CMC+SA) (1% w/v and 0.6% w/v, respectively). The second, and third experiments included five edible coating formulations including phenylalanine, chitosan, CMC+SA, chitosan with phenylalanine, and CMC+SA with phenylalanine. In experiments 1-2 each treatment group included 8 avocados kept in cardboard boxes. In these experiments the fruit were stored for 14 and 12 days respectively at 20° C. (shelf-life conditions). In experiment 3 each treatment group included 14 avocados kept in cardboard boxes. […] Determination of decay incidences: Stem end rot (SER) was determined at the end of each experiment by assessing the visual appearance of the fruit stem end. SER was evaluated on a 0-3 scale, in which zero=no SER and three=severe SER. […] Side rot (Alternaria rot and anthracnose) was evaluated at the end of each experiment on a 0-3 scale, in which zero=no side rot and three=severe rot. […] Total decay incidences were determined by calculating the percentage of decayed fruit at the end of each experiment per treatment. […]

avocado fruit = assay: Chilling injury of coated avocados stored at optimal (5° C.) and sub-optimal (2° C.) temperature; format: in vivo, 'Ettinger' avocado; conditions: 21 d at 2° C. or 5° C., followed by one week at 22° C.; index 0-3
Protocol: Three series of experiments were conducted. In each experiment the coated avocados were compared with uncoated fruits. The first experiment included seven edible coating formulations: carboxymethyl cellulose (CMC) (1% w/v), methylcellulose (MC) (1% w/v), hydroxypropyl methylcellulose (HPMC) (1% w/v), chitosan (1% w/v), alginate (1% w/v), and CMC with stearic acid (CMC+SA) (1% w/v and 0.6% w/v, respectively). The second, and third experiments included five edible coating formulations including phenylalanine, chitosan, CMC+SA, chitosan with phenylalanine, and CMC+SA with phenylalanine. In experiments 1-2 each treatment group included 8 avocados kept in cardboard boxes. In these experiments the fruit were stored for 14 and 12 days respectively at 20° C. (shelf-life conditions). In experiment 3 each treatment group included 14 avocados kept in cardboard boxes. The formulations of the edible coatings were applied to the fruit using paintbrushes. […] Internal browning: Internal browning was determined by cutting each fruit for half, lengthwise, at the end of each experiment, and assessing the visual appearance of the fruit Internal browning. Internal browning was evaluated on a 0-3 scale, in which 0=no internal browning and 3=sever internal browning. […] Blackening and pitting of the skin surface, as well as internal browning, were assessed to measure chilling injury. […]

For N[C@@H](Cc1ccccc1)C(=O)O [Phe, phenylalanine], the “decay incidence and severity (stem-end rot and side rot)” value [1] was “some effect on reducing fruit decay incidence and severity; also recorded: increased its resistance to postharvest decay”, the “decay incidence and severity (stem-end rot and side rot)” value ([1]; listed as Phenylalanine) was “did not show clear protection effects” and the chilling injuries symptoms (avocado fruit) was “reduced the appearance of chilling injuries”.
